Measurements: ChEMBL document CHEMBL1146967, “The geminal dimethyl analogue of Flurbiprofen as a novel Abeta42 inhibitor and potential Alzheimer's disease modifying agent” (Bioorg Med Chem Lett, 2006)
Activity calls are given as the source filed them. No cut-off for these calls is given here.

Columns and labels:
Mus musculus [1] = test: Drug level in mouse brain at 50 mg/kg, po; type: ADME, organism-based; parameters: dose 50 mg/kg, route oral; details: in vivo, read-out: Drug uptake
Mus musculus [2] = test: Drug level in mouse plasma at 50 mg/kg, po; type: ADME, organism-based; parameters: dose 50 mg/kg, route oral; details: in vivo, read-out: Drug uptake
[3] = target: T1, Gamma-secretase (Homo sapiens) (UniProt Q96BI3+Q9NZ42+Q8WW43+P49768+Q92542+P49810); test: Inhibition of beta amyloid protein 42 in SH-SY5Y cell lines overexpressing SPA4CT at 600 uM; type: functional, cell-based
[4] = Ratio of drug level in brain against plasma in mice at 50 mg/kg, po; type: ADME, organism-based; parameters: dose 50 mg/kg, route oral; details: mouse, brain and plasma, read-out: BBR
[5] = Inhibition of beta amyloid protein 42 in HEK cell lines overexpressing APP695 at 100 uM; type: functional; details: Homo sapiens, HEK293
Mus musculus [6] = test: Decrease in beta amyloid protein 40 level in Tg2576 transgenic mouse at 21 mg/kg relative to control; type: functional; parameters: scale not given: the % may be the effect or the level left
Mus musculus [7] = test: Decrease in beta amyloid protein 42 level in Tg2576 transgenic mouse at 21 mg/kg relative to control; type: functional; parameters: scale not given: the % may be the effect or the level left
[8] = Oral bioavailability in mouse at 2 mg/kg, po; type: ADME, organism-based; details: in vivo
HEK293 = test: Inhibition of beta amyloid protein 40 in HEK cell lines overexpressing APP695; type: functional, cell-based; details: Homo sapiens
[9] = Tmax in monkey at 2 mg/kg, po; type: ADME, organism-based, Macaca mulatta; parameters: dose 2 mg/kg, route oral; details: rhesus monkey, in vivo
[10] = Half life in monkey at 2 mg/kg, iv; type: ADME, organism-based, Macaca mulatta; parameters: dose 2 mg/kg, route intravenous; details: rhesus monkey, in vivo
[11] = Tmax in dog at 2 mg/kg, po; type: ADME, organism-based, Canis lupus familiaris; parameters: dose 2 mg/kg, route oral; details: in vivo
[12] = Clearance in mouse at 2 mg/kg, iv; type: ADME, organism-based; parameters: dose 2 mg/kg, route intravenous; details: in vivo
[13] = Oral bioavailability in monkey at 2 mg/kg, po; type: ADME, organism-based, Macaca mulatta; details: rhesus monkey, in vivo
[14] = Half life in mouse at 2 mg/kg, iv; type: ADME, organism-based; parameters: dose 2 mg/kg, route intravenous; details: in vivo
[15] = Volume of distribution in mouse at 2 mg/kg, iv; type: ADME, organism-based; parameters: dose 2 mg/kg, route intravenous; details: in vivo, read-out: Vdss
[16] = Tmax in rat at 2 mg/kg, po; type: ADME, organism-based; parameters: dose 2 mg/kg, route oral; details: in vivo
[17] = Volume of distribution in rat at 2 mg/kg, iv; type: ADME, organism-based; parameters: dose 2 mg/kg, route intravenous; details: in vivo, read-out: Vdss
[18] = Clearance in monkey at 2 mg/kg, iv; type: ADME, organism-based, Macaca mulatta; parameters: dose 2 mg/kg, route intravenous; details: rhesus monkey, in vivo
[19] = Half life in dog at 2 mg/kg, iv; type: ADME, organism-based, Canis lupus familiaris; parameters: dose 2 mg/kg, route intravenous; details: in vivo
[20] = Volume of distribution in dog at 2 mg/kg, iv; type: ADME, organism-based, Canis lupus familiaris; parameters: dose 2 mg/kg, route intravenous; details: in vivo, read-out: Vdss
[21] = Volume of distribution in monkey at 2 mg/kg, iv; type: ADME, organism-based, Macaca mulatta; parameters: dose 2 mg/kg, route intravenous; details: rhesus monkey, in vivo, read-out: Vdss
[22] = Cmax in monkey at 2 mg/kg, po; type: ADME, organism-based, Macaca mulatta; parameters: dose 2 mg/kg, route oral; details: rhesus monkey, in vivo
[23] = Oral bioavailability in dog at 2 mg/kg, po; type: ADME, organism-based, Canis lupus familiaris; details: in vivo
[24] = Tmax in mouse at 2 mg/kg, po; type: ADME, organism-based; parameters: dose 2 mg/kg, route oral; details: in vivo
[25] = Half life in rat at 2 mg/kg, iv; type: ADME, organism-based; parameters: dose 2 mg/kg, route intravenous; details: in vivo
[26] = Clearance in dog at 2 mg/kg, iv; type: ADME, organism-based, Canis lupus familiaris; parameters: dose 2 mg/kg, route intravenous; details: in vivo
[27] = Oral bioavailability in rat at 2 mg/kg, po; type: ADME, organism-based; details: in vivo
[28] = Cmax in dog at 2 mg/kg, po; type: ADME, organism-based, Canis lupus familiaris; parameters: dose 2 mg/kg, route oral; details: in vivo
[29] = Clearance in rat at 2 mg/kg, iv; type: ADME, organism-based; parameters: dose 2 mg/kg, route intravenous; details: in vivo
[30] = target: Prostaglandin G/H synthase 1 (Homo sapiens, UniProt P23219); test: Inhibition of COX1 in human whole blood; type: functional, tissue-based
Prostaglandin G/H synthase 1, sequence (P23219 whole entry): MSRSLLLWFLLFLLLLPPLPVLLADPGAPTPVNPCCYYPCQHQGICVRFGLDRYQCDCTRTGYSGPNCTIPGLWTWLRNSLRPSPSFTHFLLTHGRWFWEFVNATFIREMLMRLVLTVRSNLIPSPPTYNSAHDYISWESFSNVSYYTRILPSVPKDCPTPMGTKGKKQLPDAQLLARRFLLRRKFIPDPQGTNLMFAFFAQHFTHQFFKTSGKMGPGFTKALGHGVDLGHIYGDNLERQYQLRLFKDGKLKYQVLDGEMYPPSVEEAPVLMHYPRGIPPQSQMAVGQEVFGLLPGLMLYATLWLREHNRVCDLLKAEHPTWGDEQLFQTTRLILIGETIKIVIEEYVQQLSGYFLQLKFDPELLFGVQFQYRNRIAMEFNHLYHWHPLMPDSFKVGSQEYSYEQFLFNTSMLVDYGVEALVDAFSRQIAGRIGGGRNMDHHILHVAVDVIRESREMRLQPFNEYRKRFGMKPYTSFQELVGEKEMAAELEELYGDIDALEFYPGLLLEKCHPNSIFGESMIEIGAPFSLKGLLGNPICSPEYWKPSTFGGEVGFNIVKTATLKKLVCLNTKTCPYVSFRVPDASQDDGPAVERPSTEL

[31] = target: T1, Gamma-secretase (Homo sapiens); test: Inhibition of NOTCH receptor cleavage at 200 uM; type: functional
[32] = Cmax in rat at 2 mg/kg, po; type: ADME, organism-based; parameters: dose 2 mg/kg, route oral; details: in vivo
[33] = Cmax in mouse at 2 mg/kg, po; type: ADME, organism-based; parameters: dose 2 mg/kg, route oral; details: in vivo
[34] = target: T1, Gamma-secretase (Homo sapiens); details: SH-SY5Y, 300 uM
Description: Inhibition of beta amyloid protein 42 in SH-SY5Y cell lines overexpressing SPA4CT at 300 uM

[35] = target: T1, Gamma-secretase (Homo sapiens); test: Inhibition of beta amyloid protein 42 in SH-SY5Y cell lines overexpressing SPA4CT at 100 uM; type: functional, cell-based
[36] = Inhibition of beta amyloid protein 42 in HEK cell lines overexpressing APP695 at 40 uM; type: functional; details: Homo sapiens, HEK293
[37] = target: T1, Gamma-secretase (Homo sapiens); test: Inhibition of beta amyloid protein 42 in SH-SY5Y cell lines overexpressing SPA4CT at 30 uM; type: functional, cell-based

## CC(C)Cc1ccc(C(C)C(=O)O)cc1 (stereo not drawn) [IBUPROFEN]
Mus musculus [1]
  concentration: 18 µM
Mus musculus [2]
  concentration: 592 µM
[3]
  inhibition: 41%
[4]
  Kp: 0.03
[5]
  inhibition at 100 µM: 28%
Mus musculus [6]
  Activity: 11%
Mus musculus [7]
  Activity: 20%

## CC(C)(C(=O)O)c1ccc(-c2ccccc2)c(F)c1
[8]
  bioavailability: 81%
HEK293
  inhibition: inactive
[9]
  Tmax: 0.25 h
[10]
  half-life: 8 h
[11]
  Tmax: 0.33 h
Mus musculus [1]
  concentration: 13 µM
Mus musculus [2]
  concentration: 849 µM
[12]
  clearance: 0.7 mL/min/kg
[13]
  bioavailability: 90%
[14]
  half-life: 4.6 h
[15]
  Vd: 0.22 L/kg
[16]
  Tmax: 2 h
[17]
  Vd: 0.15 L/kg
[18]
  clearance: 3.8 mL/min/kg
[4]
  Kp: 0.02
[19]
  half-life: 11.3 h
[20]
  Vd: 0.11 L/kg
[21]
  Vd: 0.3 L/kg
[22]
  Cmax: 27.3 µM
[23]
  bioavailability: 87%
[5]
  inhibition at 100 µM: 67%
[24]
  Tmax: 0.25 h
[25]
  half-life: 3.4 h
[26]
  clearance: 0.28 mL/min/kg
[27]
  bioavailability: 79%
[28]
  Cmax: 76.4 µM
Mus musculus [6]
  Activity: 13%
[29]
  clearance: 1.3 mL/min/kg
[30]
  IC50: > 100 µM
[31]
  Activity: inactive
[32]
  Cmax: 15.2 µM
Mus musculus [7]
  Activity: 18%
[33]
  Cmax: 24.4 µM

## COc1ccc2cc([C@H](C)C(=O)O)ccc2c1 [NAPROXEN]
[34]
  inhibition: 3%
Mus musculus [1]
  concentration: 27 µM
Mus musculus [2]
  concentration: 887 µM
[4]
  Kp: 0.03

## C[C@H](C(=O)O)c1ccc(-c2ccccc2)c(F)c1 [ESFLURBIPROFEN]
[35]
  inhibition: 37%
[5]
  inhibition at 100 µM: 65%

## CC1=C(CC(=O)O)c2cc(F)ccc2/C1=C\c1ccc(S(C)(=O)=O)cc1 [EXISULIND]
[36]
  inhibition at 40 µM: 0%
[37]
  inhibition: 9%

## CC(C)(C(=O)O)c1ccc2c(c1)[nH]c1ccc(Cl)cc12
HEK293
  inhibition: inactive
[5]
  inhibition at 100 µM: 40%

## O=C(O)Cc1ccccc1Nc1c(Cl)cccc1Cl
[35]
  inhibition: 17%

## CC(=O)Nc1ccc(O)cc1 [ACETAMINOPHEN]
Mus musculus [1]
  concentration: 43 µM
Mus musculus [2]
  concentration: 64 µM
[4]
  Kp: 0.68

## COc1ccc2c(c1)c(CC(=O)O)c(C)n2C(=O)c1ccc(Cl)cc1 [INDOMETHACIN]
Mus musculus [1]
  concentration: 3 µM
Mus musculus [2]
  concentration: 266 µM
[35]
  inhibition: 53%
[4]
  Kp: 0.01
[5]
  inhibition at 100 µM: 73%

## CSc1ccc(/C=C2/C(C)=C(CC(=O)O)c3cc(F)ccc32)cc1 [SULINDAC SULFIDE]
Mus musculus [1]
  concentration: 1.7 µM
Mus musculus [2]
  concentration: 296 µM
[36]
  inhibition at 40 µM: 54%
[4]
  Kp: 0.006
[37]
  inhibition: 73%

## Cc1cccc(Nc2ccccc2C(=O)O)c1C [MEFENAMIC ACID]
Mus musculus [1]
  concentration: 2.7 µM
Mus musculus [2]
  concentration: 87 µM
[4]
  Kp: 0.03

## COc1ccc2c(c1)c(C(C)(C)C(=O)O)c(C)n2C(=O)c1ccc(Cl)cc1
HEK293
  inhibition: inactive
[5]
  inhibition at 100 µM: 2%

## CC(C)(C(=O)O)c1cccc(Oc2ccccc2)c1
HEK293
  inhibition: inactive
[5]
  inhibition at 100 µM: 0%

## C[C@@H](C(=O)O)c1ccc(-c2ccccc2)c(F)c1 [TARENFLURBIL]
Mus musculus [1]
  concentration: 41 µM
Mus musculus [2]
  concentration: 1190 µM
[35]
  inhibition: 23%
[4]
  Kp: 0.04
[5]
  inhibition at 100 µM: 51%

## CC(C(=O)O)c1cccc(Oc2ccccc2)c1 (stereo not drawn) [FENOPROFEN]
Mus musculus [1]
  concentration: 41 µM
Mus musculus [2]
  concentration: 1360 µM
[4]
  Kp: 0.03

## CC(C)Cc1ccc(C(C)(C)C(=O)O)cc1
HEK293
  inhibition: inactive
[5]
  inhibition at 100 µM: 3%

## COc1ccc2cc(C(C)(C)C(=O)O)ccc2c1
HEK293
  inhibition: inactive
[5]
  inhibition at 100 µM: 0%
